Experimental data: US20230060174A1, “PHARMACEUTICAL COMPOSITION OF TRICYCLIC PDE3/PDE4 DUAL INHIBITOR COMPOUND” (CHIA TAI TIANQING PHARMACEUTICAL GROUP CO., LTD., priority 2020, published 2023)

Legend:
[1] = Hygroscopicity study by dynamic vapor sorption (DVS); type: physicochemical; details: 25° C., RH 0%-90%-0%
Experimental: Experimental Example 2: Hygroscopicity study of crystalline form of the compound of formula (I)
Instrument model: SMS DVS Advantage
Test conditions: the sample (10-20 mg, the crystalline form prepared in Example 3) was placed in DVS sample tray for testing.
The detailed DVS parameters are as follows:
Balancing: dm/dt=0.01%/min (shortest: 10 min, longest: 180 min)
Drying: drying at 0% RH for 120 min
RH (%) test gradient: 10%
Range of RH (%) test gradient: 0%-90%-0%.

[2] = Stability study of solid crystalline form (HPLC total impurities); type: physicochemical
Experimental: Experimental Example 1: Stability study of solid crystalline form of the compound of formula (I)
High performance liquid chromatography (HPLC) • The chromatographic conditions of the HPLC method are seen in table below: • Chromatography column: Zorbax SB C-18, 4.6 mm×150 mm, 5 μm (PDS-HPLC-007) • Mobile phase A: 0.1% TFA in water • Mobile phase B: 100% ACN
Preparation of sample: the sample was dissolved with a mixed solvent of acetonitrile and water (acetonitrile: water=50:50 (v/v))
Solid stability stakeout method
The stability of the compound in the following conditions was examined, and samples were taken at different time points to detect the content. About 5 mg of the crystalline form of the compound of formula (I) prepared in Example 2 was accurately weighted in duplicate, transferred to a dry and clean glass bottle, spread into a thin layer as test samples, and placed in experimental conditions of influential factors ((60° C.), (relative humidity 92.5%), illumination (total illumination of 1.2×10^6 Luxhr/near UV energy of 200 whr/m^2), (40° C., relative humidity 75%), or (60° C., relative humidity 75%)). The samples were covered with aluminum foils having holes, and thus completely exposed to the conditions. Sampling analysis was performed at 5 days, 10 days, 1 month, 2 months and 3 months. The samples were completely exposed to illumination (visible light of 1200000 Lux, UV of 200 W) at room temperature.

[3] = reported in literature; cited from earlier work
[4] = reported in literature; cited from earlier work; remark: listed apart in the source
PDE4 = details: reported in literature; cited from earlier work

Hygroscopicity (DVS) [1] | Total impurities % ([2]; 40° C. + 75% RH - 1 month) | Total impurities % ([2]; 40° C. + 75% RH - 2 months) | Total impurities % ([2]; 40° C. + 75% RH - 3 months) | Total impurities % ([2]; 40° C. + 75% RH - 10 days) | Total impurities % ([2]; 60° C. + 75% RH - 1 month) | Total impurities % ([2]; 60° C. + 75% RH - 10 days) | Total impurities % ([2]; 60° C. - 5 days) | Total impurities % ([2]; 60° C. - 10 days) | Total impurities % ([2]; 92.5% RH - 5 days) | Total impurities % ([2]; 92.5% RH - 10 days) | Total impurities % ([2]; Day 0) | Total impurities % ([2]; Illumination (1.2×10^6 Lux hr, near UV 200 w hr/m^2)) | Total impurities % ([2]; In the dark) | Stability in the conditions of high temperature, high humidity or illumination ([2]; high temperature, high humidity or illumination, no increase of impurities) | Structure (SMILES) | Plasma clearance [3] | Solubility [4] | PDE4 inhibitory activity (PDE4)
small hygroscopicity | 0.10% | 0.08% | 0.09% | 0.10% | 0.10% | 0.10% | 0.10% | 0.11% | 0.11% | 0.10% | 0.11% | 0.10% | 0.11% | good stability | CCOc1cc2c(cc1OC)-c1c/c(=N\c3c(C)cc(C)cc3C)n(CCNC(=O)c3c(O)nnn3C)c(=O)n1CC2 | – | – | –
– | – | – | – | – | – | – | – | – | – | – | – | – | – | – | COc1cc2c(cc1OC)-c1c/c(=N\c3c(C)cc(C)cc3C)n(CCNC(N)=O)c(=O)n1CC2 [RPL554] | high | poor | unsatisfactory
